Results published in patent US10980811B2, “Reversal of fosfomycin resistance” (University of Pittsburgh—Of the Commonwealth System of …, priority 2017, dated 2021).
≈ marks a conversion by molar mass, not a printed value. Read-outs that look alike come from different tables or passages of the source.

Columns and labels:
[1] = tested on: ESBL- and carbapenemase-producing Klebsiella pneumoniae; conditions: ESBL- and carbapenemase-producing K. pneumoniae; cited from earlier work
[2] = tested on: carbapenemase (KPC)-producing K. pneumoniae clinical strain I1; assay: Bacterial growth curve analysis (Gompertz model); format: cell-based; conditions: for IC50: Klebsiella pneumoniae, read-out: IC50 for FOM (concentration decreasing maximum growth by 50%)
Method: Briefly, an overnight culture of K. pneumoniae I1 was diluted in Mueller-Hinton broth in a 96-well plate, incubated at 37° C. (150 rpm), and OD600 was assessed every 30 min.
The growth curves were modeled using a modified 3-parameter Gompertz equation (Zwietering et al., Appl Environ Microbiol 1990, 56(6)1875-81), which facilitated quantification of the lag time (min), growth rate (OD units/min) and maximum growth (OD units). […] The maximum growth value was determined from the curves in FIGS. 12A-12C using a 3-parameter Gompertz equation.

[3] = tested on: chromosomal FosA genes expressed in E. coli; conditions: cited from earlier work
[4] = biological target: FosA (Klebsiella pneumoniae, UniProt W8UNW6); assay: Steady-state kinetics of ANY1 inhibition of FosA activity; format: biochemical; conditions: for Vmax: 0-50 mM fosfomycin
Method: Assays were carried out in a volume of 50 μl at 25° C. in 0.1 M sodium phosphate buffer (pH 8.0) containing 50 mM KCl, 25 μM MnCl2, 30 mM glutathione, and 0-50 mM fosfomycin. A 100 nM concentration of FosA was used to initiate the reaction, which was quenched after 20 minutes for FosA. Reactions were quenched by the addition of 150 μl methanol. Quenched reactions were diluted in 100 μl of 0.1 M sodium phosphate buffer (pH 8.0) containing 1 mM EDTA. Following the addition of 500 μM monochlorobimane, the concentration of glutathione was established by fluorescence spectroscopy using a SpectraMax M2 plate reader (Molecular Devices). A standard curve was prepared using 0 to 750 μM glutathione. Data were fitted to Michaelis Menten equations using SigmaPlot (Systat Software Inc., San Jose, Calif.).

[5] = tested on: FosA3-producing E. coli YD472; assay: Growth curve analysis, FOM dose response with or without ANY1; format: cell-based; conditions: 112 μg/mL ANY1; P=0.04
[6] = tested on: FosB enzyme from Gram-positive pathogens; assay: Isothermal titration calorimetry; format: binding; conditions: data not shown
[7] = tested on: fosfomycin-resistant, FosA-producing Klebsiella pneumoniae; assay: Growth inhibition of fosfomycin-resistant FosA-producing bacteria; format: cell-based; conditions: with 32 μg/mL fosfomycin; K. pneumoniae
Method: (§1) Each bacterial strain is resistant to fosfomycin and caries the species-specific fosfomycin-modifying gene encoding FosA.
(§2) An overnight culture of each antibiotic-resistant bacterium was grown in Mueller-Hinton Broth at 37° C., 150 rpm. The following day, the culture was diluted such that its OD600 was 0.2. The diluted culture was allowed to grow at 37° C. for 1 h. Following this, the culture was diluted such that its OD600 was 0.1. In a 96-well, round-bottom plate, three groups were set-up. […] Group three contained 10 two-fold dilutions of fosfomycin (0-1024 μg/mL). All groups contained 25% volume of the […] and 25 μg/mL glucose-6-phosphate. The plate was incubated at 37° C. for up to […]. The OD600 was assessed every […]. Data was analyzed in PRISM software or SigmaPlot® software (Systat Software Inc., San Jose, Calif.). The initial OD600 subtracted as background, and fit with a logistic growth curve.

[8] = tested on: fosfomycin-resistant, FosA-producing Enterobacter cloacae; assay: as above; format: cell-based; conditions: with 32 μg/mL fosfomycin; E. cloacae
Method: as §1, §2

[9] = tested on: fosfomycin-resistant, FosA-producing Pseudomonas aeruginosa; assay: as above; format: cell-based; conditions: with 32 μg/mL fosfomycin; P. aeruginosa
Method: as §1, §2

[10] = tested on: fosfomycin-resistant, FosA-producing Escherichia coli; assay: as above; format: cell-based; conditions: with 32 μg/mL fosfomycin; E. coli
Method: as §1, §2

[11] = biological target: FosA3 Y39F (Escherichia coli, UniProt D7UQM0, Y39F); assay: Tryptophan fluorescence binding studies
[12] = tested on: K. pneumoniae I1; assay: Time-kill experiments; format: cell-based; conditions: FOM with ANY1
[13] = biological target: E. coli MurA (Escherichia coli, UniProt P0A749); assay: Isothermal titration calorimetry; format: binding; conditions: data not shown
[14] = tested on: human peripheral blood mononuclear cells; assay: CellTiter-Glo luminescent cell viability assay; format: cell-based; conditions: 0-224 μg/mL ANY1; data not shown
Method: (§3) In all cases, cell viability was assessed using the CellTiter-Glo® luminescent cell viability assay.

[15] = biological target: FosA3 Y131A (Escherichia coli, UniProt D7UQM0, Y131A); assay: Tryptophan fluorescence binding studies
[16] = tested on: HK2 cells; assay: CellTiter-Glo luminescent cell viability assay; format: cell-based, human; conditions: 0-224 μg/mL ANY1; data not shown
Method: as §3

[17] = biological target: FosA3 R96A (Escherichia coli, UniProt D7UQM0, R96A); assay: Tryptophan fluorescence binding studies
[18] = biological target: FosA3 Y65F (Escherichia coli, UniProt D7UQM0, Y65F); assay: Tryptophan fluorescence binding studies
[19] = tested on: OK cells; assay: CellTiter-Glo luminescent cell viability assay; format: cell-based, marsupial; conditions: 0-224 μg/mL ANY1; data not shown
Method: as §3

[20] = biological target: FosA3 S36A (Escherichia coli, UniProt D7UQM0, S36A); assay: Tryptophan fluorescence binding studies
[21] = biological target: FosA3 WT (Escherichia coli, UniProt D7UQM0); assay: Tryptophan fluorescence binding studies
[22] = biological target: FosA3 Y131F (Escherichia coli, UniProt D7UQM0, Y131F); assay: Tryptophan fluorescence binding studies
[23] = tested on: KPC-producing clinical strain S. marcescens YDC760-2; assay: Growth curve analysis, FOM dose response with or without ANY1; format: cell-based; conditions: 112 μg/mL ANY1; P<0.05
[24] = biological target: FosA^KP (K. pneumoniae chromosomal FosA) (Klebsiella pneumoniae, UniProt W8UNW6); assay: FosA screening assay (monochlorobimane fluorescence, glutathione consumption); format: biochemical
[25] = tested on: KPC-producing clinical strain E. cloacae YDC612; assay: Growth curve analysis, FOM dose response with or without ANY1; format: cell-based; conditions: 112 μg/mL ANY1; P<0.05
[26] = biological target: FosA3 W46A (Escherichia coli, UniProt D7UQM0, W46A); assay: biochemical
[27] = biological target: FosA3 W34A (Escherichia coli, UniProt D7UQM0, W34A); assay: biochemical
[28] = tested on: fosfomycin-resistant Escherichia coli strain containing a deletion in the uhpT gene; assay: Growth curves of FosA-non-producing uhpT deletion strain; format: cell-based; conditions: absence and presence of 32 μg/mL fosfomycin; strain without FosA gene
Method: as §2
FIGS. 8A-8B show the growth curves of a fosfomycin-resistant Escherichia coli strain containing a deletion in the uhpT gene. […] Fosfomycin resistance is conferred by decreased transport of the antibiotic across the bacterial cell wall.

[29] = biological target: FosA3 T9A (Escherichia coli, UniProt D7UQM0, T9A); assay: Tryptophan fluorescence binding studies
[30] = biological target: FosA^KP (chromosomal K. pneumoniae FosA) (Klebsiella pneumoniae, UniProt W8UNW6); assay: Isothermal titration calorimetry; format: binding

C[C@@H]1O[C@@H]1P(=O)(O)O [FOM, Fosfomycin]
MIC50 [1]: ~32 µg/mL (≈ 0.232 mM) | MIC90 [1]: ~128 µg/mL (≈ 0.927 mM) | IC50 ([2]; absence of ANY1): 144 ± 16.5 µg/mL (≈ 1.04 mM) | IC50 ([2]; presence of ANY1 (112 μg/mL)): 23.2 ± 4.3 µg/mL | MIC ([3]; FosA of Enterobacter aerogenes): >1024 µg/mL | MIC ([3]; FosA of Enterobacter cloacae): >1024 µg/mL | MIC ([3]; FosA of Klebsiella oxytoca): >1024 µg/mL | MIC ([3]; FosA of Klebsiella pneumoniae): >1024 µg/mL | MIC ([3]; FosA of Morganella morganii): >1024 µg/mL | MIC ([3]; FosA of Proteus mirabilis): 9.8 µg/mL (≈ 0.071 mM) | MIC ([3]; FosA of Providencia rettgeri): >1024 µg/mL | MIC ([3]; FosA of Providencia stuartii): >1024 µg/mL | MIC ([3]; FosA of Pseudomonas aeruginosa): 16 µg/mL (≈ 0.116 mM) | MIC ([3]; FosA of Serratia marcescens): >1024 µg/mL

O=c1[nH]n2cc(-c3n[nH]c(-c4cnc5c(Br)c(=O)[nH]n5c4)c3[N+](=O)[O-])cnc2c1Br [ANY1, 3-bromo-6-[3-(3-bromo-2-oxo-1H-pyrazolo[1,5-a]pyrimidin-6-yl)-4-nitro-1H-pyrazol-5-yl]-1H-pyrazolo[1,5-a]pyrimidin-2-one]
Vmax ([4]; 5 μM ANY1): 118.2 | Vmax ([4]; 10 μM ANY1): 107 | Vmax ([4]; 20 μM ANY1): 154.6 | Mode of inhibition with respect to glutathione ([4]; data not shown): non-competitive inhibitor | Mode of inhibition with respect to fosfomycin binding to FosA ([4]; varying fosfomycin, 0-20 μM ANY1): competitive inhibitor | Decrease of the IC50 for FOM by ANY1 [5]: 1.8 fold | Binding to FosB [6]: did not bind | Inhibition of FosA in the strain, reversing fosfomycin resistance (growth curves) [7]: effectively inhibited FosA | Inhibition of FosA in the strain, reversing fosfomycin resistance (growth curves) [8]: effectively inhibited FosA | Inhibition of FosA in the strain, reversing fosfomycin resistance (growth curves) [9]: effectively inhibited FosA | Inhibition of FosA in the strain, reversing fosfomycin resistance (growth curves) [10]: effectively inhibited FosA | Kd [11]: 868 ± 201 nM | Effect of ANY1 on FOM activity in time-kill [12]: significantly increased FOM activity | Binding to E. coli MurA [13]: did not bind | Impact on cell viability [14]: no impact on cell viability | Kd [15]: 4.88 ± 0.77 µM | Impact on cell viability [16]: no impact on cell viability | Kd [17]: 541 ± 90.1 nM | Reduction of FOM IC50 by ANY1 ([2]; 112 μg/mL ANY1, P<0.05): ~6 fold | Bacterial growth when FOM was combined with ANY1 ([2]; FOM 32, 64, 128 μg/mL with ANY1 14-224 μg/mL, dose dependent): significantly attenuated | Effect of ANY1 alone on growth ([2]; absence of FOM): no effect | Effect of ANY1 on the activity of gentamicin ([2]; gentamicin ± ANY1 dose-response): did not alter the activity of gentamicin | Increase in FOM activity (maximum growth) ([2]; highest ANY1 concentration tested): ~6 fold | Kd [18]: 784 ± 74.7 nM | Impact on cell viability [19]: no impact on cell viability | Kd [20]: 1360 ± 132 nM | Kd [21]: 441 ± 50.1 nM | Kd [22]: 551 ± 28 nM | Decrease of the IC50 for FOM by ANY1 [23]: > 100 fold | IC50 [24]: 5 µM | Decrease of the IC50 for FOM by ANY1 [25]: 23 fold | Kd [26]: 2470 ± 111 nM | Kd [27]: 2620 ± 205 nM | Inhibition of bacterial growth [28]: did not inhibit the bacterial growth | Kd [29]: 1580 ± 97.6 nM | Kd [30]: 180 ± 30 nM
